# Measured values reported in patent US7531573B2 (priority 1994, dated 2009).
# pIC50: −log10 of the molar value. Where two headings read alike, the source gives them in different places.
# What was measured:
# [1] = tested on: NIH 3T3 mouse fibroblast cells; assay: Mitogen-induced cell proliferation; format: cell-based; conditions: for inhibition at 10 µM: NIH3T3, read-out: Mitogen-induced cell proliferation % Inhibition; for pIC50: NIH3T3, read-out: Mitogen-induced cell proliferation IC50
# Source text: Other cell lines, e.g., cancer cells, endothelial cells and fibroblasts, as well as many others, may be used in the cell proliferation assay. Selection of a particular cell line will depend in part on the desired application, and is well within the capabilities of an ordinarily skilled artisan.
# [2] = target: Gardos channel of erythrocytes (Homo sapiens, UniProt O15554); assay: cell-based; conditions: for inhibition at 10 µM: read-out: Gardos Channel % Inhibition
# Chain of Gardos channel of erythrocytes (O15554 whole entry): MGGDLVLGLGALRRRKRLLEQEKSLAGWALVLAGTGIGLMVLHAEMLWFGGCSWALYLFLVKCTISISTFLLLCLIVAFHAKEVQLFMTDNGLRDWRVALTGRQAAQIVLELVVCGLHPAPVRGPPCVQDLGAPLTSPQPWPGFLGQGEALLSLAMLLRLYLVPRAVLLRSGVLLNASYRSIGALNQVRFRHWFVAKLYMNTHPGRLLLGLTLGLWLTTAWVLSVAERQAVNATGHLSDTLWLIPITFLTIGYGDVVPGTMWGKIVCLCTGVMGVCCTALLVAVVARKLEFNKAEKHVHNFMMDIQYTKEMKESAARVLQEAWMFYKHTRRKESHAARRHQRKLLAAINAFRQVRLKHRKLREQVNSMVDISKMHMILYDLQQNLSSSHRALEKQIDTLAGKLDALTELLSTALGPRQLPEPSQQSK
# [3] = target: T1, red cell calcium-activated potassium transport (Homo sapiens, UniProt O15554); assay: Red cell Ca2+-activated 86Rb influx inhibition after oral Clotrimazole; format: in vivo; conditions: Subject B
# T1 construct: endogenous in cells; host or cells: red cells of two normal human subjects
# T1 sequence (O15554 whole entry): as above
# red cell Gardos channel = red cell Gardos channel (Homo sapiens, UniProt O15554); assay: cell-based
# Chain of red cell Gardos channel (O15554 whole entry): as above
# Description: CLT and metabolite B (Compound 6) were incubated with a red cell suspension at 20% Hct.
# [4] = tested on: MM-RU human melanoma cells; assay: SCID mice inoculated with MM-RU human melanoma cells, lung metastases; format: in vivo; conditions: 120 mg/Kg subcutaneous daily for 10 weeks
# Description: Mice with severe combined immunodeficiency disease (SCID) were inoculated via the lateral tail vein with approximately 2.5×10^6 MM-RU human melanoma cells, a cell line that produces metastases only in the lungs (Byers et al., 1993, Melanoma Res. 3:247-253). Starting on the day of inoculation, subcutaneous injections of either vehicle (control group, n=9) or CLT (120 mg/Kg; treatment group, n=10) was administered daily for a period of 10 weeks. At the end of the 10 week treatment period, the mice were sacrificed and examined for metastases.
# Gardos channel = Gardos channel (Homo sapiens, UniProt O15554); format: binding
# Chain of Gardos channel (O15554 whole entry): as above
# [5] = target: T1, red cell calcium-activated potassium transport; assay: Red cell Ca2+-activated 86Rb influx inhibition after oral Clotrimazole; format: in vivo; conditions: for Ca2+-activated 86Rb influx inhibition %: Subject A
# Description: Two subjects, […] (A, 72 kg) and […] (D, 56 kg), ingested one 500 mg CLT tablet every twelve hours for six days, corresponding to a daily CLT dose of 14 and 18 mg/kg, respectively.
# clinical = format: in vivo; conditions: human, in vivo, read-out: Levels Plasma; for concentration at 6 day of CLT dosing: CLT day 6; for concentration at 10 day (wash-out): Wash-out day 10; for concentration at 13 day (wash-out): Wash-out day 13; for concentration at 20 day (wash-out): Wash-out day 20
# [6] = erythrocytes, read-out: Gardos Channel IC50
# 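For Levels Plasma in this document: oral tablet given every 12 h for six days, about 14 mg/kg per day for this subject, with levels then followed in plasma.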
smiles,measurement,setting,value
"N#CC(c1ccccc1)(c1ccccc1)c1ccccc1F [Compound 32, (2-fluorophenyl)-diphenylacetonitrile]",inhibition at 10 µM,[1],54%
same,pIC50,[2],7.17
same,inhibition at 10 µM,[2],95.7%
same,melting point,,144 to 145 °C
"NC(=O)CC(c1ccc(Cl)cc1)(c1ccc(Cl)cc1)c1ccc(Cl)cc1 [Compound 30, tris(4-chlorophenyl)propionamide]",inhibition at 10 µM,[1],99%
same,pIC50,[1],6.05
same,pIC50,[2],6.57
same,inhibition at 10 µM,[2],97%
same,melting point,,158 to 160 °C
"OC(c1ccccc1)(c1ccccc1)C1CCCCC1 [Compound 88, cyclohexyl-diphenylmethanol]",inhibition at 10 µM,[1],94%
same,pIC50,[1],5.02
same,pIC50,[2]; [6],6.06
same,inhibition at 10 µM,[2],99%
same,melting point,,76 to 78 °C
"N#CC(c1ccccc1)(c1ccccc1)C1CCCCC1 [Compound 89, cyclohexyl-diphenylacetonitrile]",inhibition at 10 µM,[1],98%
same,pIC50,[1],6.05
same,pIC50,[2]; [6],5.21
same,inhibition at 10 µM,[2],70.2%
same,melting point,,117.5 to 119 °C
"NC(=O)C(c1ccccc1)(c1ccccc1)c1ccccc1Cl [Compound 75, (2-chlorophenyl)-diphenylacetamide]",inhibition at 10 µM,[1],90%
same,pIC50,[2]; [6],8.22
same,inhibition at 10 µM,[2],98%
same,melting point,,197 to 198.5 °C
"Clc1ccccc1C(c1ccccc1)(c1ccccc1)n1ccnc1 [Clotrimazole, reference compound]",Ca2+-activated 86Rb influx inhibition %,[3]; CLT day 3,80 ± 28%
same,Ca2+-activated 86Rb influx inhibition %,[3]; CLT day 6,83 ± 7%
same,Ca2+-activated 86Rb influx inhibition %,[3]; Wash-out day 8,79 ± 21%
same,Ca2+-activated 86Rb influx inhibition %,[3]; Wash-out day 10,82 ± 4%
same,Ca2+-activated 86Rb influx inhibition %,[3]; Wash-out day 13,37 ± 30%
same,Ca2+-activated 86Rb influx inhibition %,[3]; Wash-out day 20,0 ± 13%
same,concentration at which inhibition of K+ transport reached maximal levels,red cell Gardos channel,5 µM
same,% control,red cell Gardos channel; 1 nM,100.3%
same,flux,red cell Gardos channel; 1 nM,1.155
same,inhibition at 0.001 µM,red cell Gardos channel; 1 nM,-0.3%
same,% control,red cell Gardos channel; 10 nM,97.6%
same,flux,red cell Gardos channel; 10 nM,1.124
same,inhibition at 0.01 µM,red cell Gardos channel; 10 nM,2.4%
same,% control,red cell Gardos channel; 100 nM,77.4%
same,flux,red cell Gardos channel; 100 nM,0.892
same,inhibition at 0.1 µM,red cell Gardos channel; 100 nM,22.6%
same,% control,red cell Gardos channel; 500 nM,45.0%
same,flux,red cell Gardos channel; 500 nM,0.518
same,inhibition at 0.5 µM,red cell Gardos channel; 500 nM,> 50%
same,% control,red cell Gardos channel; 1 μM,21.5%
same,flux,red cell Gardos channel; 1 μM,0.248
same,inhibition at 1 µM,red cell Gardos channel; 1 μM,78.5%
same,% control,red cell Gardos channel; 5 μM,3.3%
same,flux,red cell Gardos channel; 5 μM,0.038
same,inhibition at 5 µM,red cell Gardos channel; 5 μM,96.7%
same,% control,red cell Gardos channel; 10 μM,3.7%
same,flux,red cell Gardos channel; 10 μM,0.043
same,inhibition at 10 µM,red cell Gardos channel; 10 μM,96.3%
same,number of microscopic metastases,[4]; SCID mice,7±2
same,number of pleural metastases,[4]; SCID mice,2±1
same,systemic metastatic disease or toxicity,[4]; SCID mice,did not show any evidence of systemic metastatic disease or toxicity
same,weight gain,[4]; SCID mice,gained weight in comparable amounts
same,treated animals free of macroscopic metastases,[4]; n=10,half
same,treated animals without evidence of microscopic metastases,[4]; n=10,two
same,inhibition at 10 µM,[1],93%
same,125I-ChTX Binding,Gardos channel,1.000
same,Displacement (%),Gardos channel,41.6%
same,Ca2+-activated 86Rb influx inhibition %,[5]; CLT day 3,74 ± 5%
same,Ca2+-activated 86Rb influx inhibition %,[5]; CLT day 6,73 ± 4%
same,Ca2+-activated 86Rb influx inhibition %,[5]; Wash-out day 6,71 ± 7%
same,Ca2+-activated 86Rb influx inhibition %,[5]; Wash-out day 10,75 ± 11%
same,Ca2+-activated 86Rb influx inhibition %,[5]; Wash-out day 13,58 ± 9%
same,Ca2+-activated 86Rb influx inhibition %,[5]; Wash-out day 20,0 ± 10%
same,persistence of inhibition of calcium-activated potassium transport after the drugs were discontinued,"[5]; two subjects, oral CLT for six days",at least 7 days
"O=CC(c1ccccc1)(c1ccccc1)c1ccccc1Cl [Compound 15, 2-chlorophenyl-diphenylacetaldehyde]",inhibition at 10 µM,[1],88.6%
same,pIC50,[1],5.59
same,pIC50,[2]; [6],7.01
same,inhibition at 10 µM,[2],100%
same,melting point,,126 to 129 °C
"O=CC(c1ccccc1)(c1ccccc1)c1ccccc1 [Compound 16, triphenylacetaldehyde]",inhibition at 10 µM,[1],99.4%
same,pIC50,[1],5.70 to 6.40
same,pIC50,[2]; [6],7.06
same,inhibition at 10 µM,[2],98%
same,melting point,,91 to 96 °C
"O=CCC(c1ccccc1)(c1ccccc1)c1ccccc1Cl [Compound 79, 3-(2′-chlorophenyl)-3,3-diphenylpropanal]",inhibition at 10 µM,[1],99%
same,pIC50,[1],5.57
same,pIC50,[2]; [6],7.08
same,inhibition at 10 µM,[2],96%
same,melting point,,92 to 93 °C
"O=C(O)CC(c1ccccc1)(c1ccccc1)c1ccccc1Cl [Compound 36, 3-(2-chlorophenyl)-3,3-diphenylpropionic acid]",inhibition at 10 µM,[1],92%
same,pIC50,[1],6.22
same,pIC50,[2]; [6],5.51
same,inhibition at 10 µM,[2],78.6%
same,melting point,,180 to 182 °C
"Clc1ccccc1C(c1ccccc1)c1ccccc1 [Compound 17, 2-chlorophenyl-diphenylmethane]",inhibition at 10 µM,[1],91.8%
same,pIC50,[1],5.41
same,pIC50,[2],6.07
same,inhibition at 10 µM,[2],100%
same,melting point,,74 to 76 °C
same,concentration at 6 day of CLT dosing,"clinical; 500 mg, Subject A",1800 nM
same,concentration at 6 day (wash-out),"clinical; 500 mg, Subject A, Wash-out day 6",< 100 nM
same,concentration at 10 day (wash-out),"clinical; 500 mg, Subject A",< 100 nM
same,concentration at 13 day (wash-out),"clinical; 500 mg, Subject A",0 nM
same,concentration at 20 day (wash-out),"clinical; 500 mg, Subject A",0 nM
same,concentration at 3 day of CLT dosing,"clinical; 500 mg, Subject B, CLT day 3",1650 nM
same,concentration at 6 day of CLT dosing,"clinical; 500 mg, Subject B",2500 nM
same,concentration at 8 day (wash-out),"clinical; 500 mg, Subject B, Wash-out day 8",< 100 nM
same,concentration at 10 day (wash-out),"clinical; 500 mg, Subject B",< 100 nM
same,concentration at 13 day (wash-out),"clinical; 500 mg, Subject B",0 nM
same,concentration at 20 day (wash-out),"clinical; 500 mg, Subject B",0 nM
same,concentration at 3 day of CLT dosing,"clinical; Subject A, CLT day 3, oral CLT 500 mg every twelve hours",700 nM
CCOC(=O)C(C(=O)OCC)C(c1ccccc1)(c1ccccc1)c1ccccc1Cl [Compound 33],inhibition at 10 µM,[1],45%
same,pIC50,[2],6.90
same,inhibition at 10 µM,[2],100%
c1ccc(C(c2ccccc2)c2ccccc2)cc1 [Compound 3],inhibition at 10 µM,[1],53%
same,pIC50,[2],5.92
same,inhibition at 10 µM,[2],86.6%
c1ccc(N(c2ccccc2)c2ccccc2)cc1 [Compound 8],inhibition at 10 µM,[1],28.3%
same,pIC50,[2]; [6],5.55
same,inhibition at 10 µM,[2],95.6%
OC(c1ccccc1)(c1ccccc1)c1cccnc1 [Compound 63],inhibition at 10 µM,[1],37%
same,pIC50,[2],5.99
same,inhibition at 10 µM,[2],69%
SC(c1ccccc1)(c1ccccc1)c1ccccc1 [Compound 11],inhibition at 10 µM,[1],52%
same,pIC50,[1],5.64
same,pIC50,[2]; [6],5.67
same,inhibition at 10 µM,[2],99.2%
ClC(c1ccccc1)(c1ccccc1)c1ccccc1 [Compound 2],inhibition at 10 µM,[1],64.8%
same,pIC50,[2],6.34
same,inhibition at 10 µM,[2],99.4%
"CC(=O)CC(c1ccccc1)(c1ccccc1)c1ccccc1Cl [Compound 82, 4-(2-chlorophenyl)-4,4-diphenyl-2-butanone]",inhibition at 10 µM,[1],98%
same,pIC50,[1],5.30
same,pIC50,[2]; [6],7.57
same,inhibition at 10 µM,[2],99.5%
Brc1ccc(C(c2ccccc2)c2ccc(Br)cc2)cc1 [Compound 66],inhibition at 10 µM,[1],73%
same,pIC50,[2],6.42
same,inhibition at 10 µM,[2],67.2%
Cc1ccc(C(O)(c2ccc(C)cc2)c2ccc(C)cc2)cc1 [Compound 59],inhibition at 10 µM,[1],98%
same,pIC50,[1],5.52
same,pIC50,[2],6.31
same,inhibition at 10 µM,[2],100%
N#CC(c1ccccc1)(c1ccccc1)c1ccc([N+](=O)[O-])cc1 [Compound 52],inhibition at 10 µM,[1],93%
same,pIC50,[1],5.77
same,pIC50,[2]; [6],6.59
same,inhibition at 10 µM,[2],94%
O=CCC(c1ccccc1)(c1ccccc1)c1ccccc1 [Compound 38],inhibition at 10 µM,[1],99%
same,pIC50,[1],5.64 to 6.10
same,pIC50,[2]; [6],6.66
same,inhibition at 10 µM,[2],92%
"Oc1ccc(C(O)(c2ccccc2)c2ccccc2Cl)cc1 (stereo not drawn) [Compound 84, α-(2-chlorophenyl)-α-(4-hydroxyphenyl)benzyl alcohol]",inhibition at 10 µM,[1],99%
same,pIC50,[1],6.00
same,pIC50,[2],5.89
same,inhibition at 10 µM,[2],95.3%
same,melting point,,56.5 to 60 °C
